From US7803801B2, “Aminopyridine compounds having Syk inhibitory activity” (Japan Tobacco, Inc., priority 2005, dated 2010) come the findings set out here.

Structures can show the parent of a compound that is named as a salt.

In test [1] the test system is cultured human mast cells. The experiment in a line: Degranulation inhibition test using cultured human mast cells (IgE cross-linking, β-Hexosaminidase release). In kind it is cell-based. To be noted: Mast cell; cultured human mast cells, anti-hIgE stimulation, β-Hexosaminidase index, average; read-out: human degranulation ave. IC50. An outline of the steps: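 Degranulation was triggered by anti-hIgE (10 μg/mL final, 30 min, 37 °C) after a 10-min compound pretreatment (DMSO 0.1%) of cord-blood CD34+-derived mast cells primed 5 days with IL-4 and IgE. β-Hexosaminidase in supernatant was measured with p-nitrophenyl-GlcNAc substrate (A405), expressed against water-lysed total; IC50 (M).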

Test [2] has as its target GST-Syk Full Protein (human) (Homo sapiens, UniProt P43405). The experiment in a line: Syk kinase inhibition test (HTRF method). To be noted: HTRF, 100 μM ATP, 30 min room temperature, average; read-out: sykHTRF ave IC50. In kind it is biochemical. A digest of the protocol: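 HTRF read-out: after EDTA termination and 1 h with XL665-streptavidin and Eu-anti-phosphotyrosine, the 665/620 nm ratio was measured. The reaction ran 30 min at 20–25 °C with final 6.4 nM human GST-Syk, 250 nM biotinylated peptide, 100 μM ATP, pH 7.0 HEPES buffer, 2% DMSO.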

For the compound `Cc1ccnc(Nc2cccc(-c3cnc([C@H]4CC[C@H](C(=O)N5CCC[C@@H]5CO)CC4)s3)n2)c1` [Compound A-286, ((R)-2-hydroxymethylpyrrolidin-1-yl)-(trans-4-{5-[6-(4-methylpyridin-2-ylamino)pyridin-2-yl]thiazol-2-yl}cyclohexyl)metanone], the IC50 in test [1] was 100 to 1000 nM; in test [2] it was under 100 nM.
Regarding `Cc1ccnc(Nc2cccc(-c3cnc([C@H]4CC[C@H](C(=O)N5CCC(N(C)C)C5)CC4)s3)n2)c1` (stereo partly shown) [Compound A-287], the half-inhibitory concentration (IC50) in test [1] and in test [2] was 100 to 1000 nM throughout.
In the case of `Cc1ccnc(Nc2cccc(-c3cnc(CNCc4ccc(C(=O)O)cc4)s3)n2)c1` [Compound A-288], the results for the IC50 in test [1] and in test [2] were over 1000 nM and 100 to 1000 nM, respectively.
`CC(=O)N1CCN(C(=O)[C@H]2CC[C@H](c3ncc(-c4cccc(Nc5cc(C)ccn5)n4)s3)CC2)CC1` [Compound A-289]: the concentration for half-maximal inhibition (IC50) was over 1000 nM in test [1] and 100 to 1000 nM in test [2].
As to `Cc1ccnc(Nc2cccc(-c3cnc([C@H]4CC[C@H](C(=O)N5CCC(N)CC5)CC4)s3)n2)c1` [Compound A-290, (4-aminopiperidin-1-yl)-(trans-4-{5-[6-(4-methylpyridin-2-ylamino)pyridin-2-yl]thiazol-2-yl}cyclohexyl)methanone], the IC50 is over 1000 nM in test [1] and under 100 nM in test [2].
Take `COc1ccnc(Nc2cccc(-c3cnc([C@H]4CC[C@H](C(=O)N5CCC(O)CC5)CC4)s3)n2)c1` [Compound A-291]: the concentration for half-maximal inhibition (IC50) in test [1] and in test [2] was 100 to 1000 nM each time.
Turning to `Cc1ccnc(Nc2cccc(-c3cnc(C4CCN(C(=O)C5CCNCC5)CC4)s3)n2)c1` [Compound A-292], the values for the IC50 in test [1] and in test [2] were over 1000 nM and 100 to 1000 nM, respectively.
For the compound `Cc1ccnc(Nc2cccc(-c3cnc(CCC4CCN(C(=O)C5CCC(=O)CC5)CC4)s3)n2)c1` [Compound A-293], the IC50 in test [1] is over 1000 nM; in test [2], 100 to 1000 nM.
For `Cc1ccnc(Nc2cccc(-c3cnc(CCC4CCN(C(=O)C5CCC(O)CC5)CC4)s3)n2)c1` (stereo not shown) [Compound A-294], the IC50 in test [1] was over 1000 nM; in test [2], 100 to 1000 nM.
For the compound `Cc1ccnc(Nc2cccc(-c3cnc(CCC4CCN(C(=O)C5CCNCC5)CC4)s3)n2)c1` [Compound A-295, [4-(2-{5-[6-(4-methylpyridin-2-ylamino)pyridin-2-yl]thiazol-2-yl}ethyl)piperidin-1-yl]-(piperidin-4-yl)metanone], the concentration for half-maximal inhibition (IC50) in test [1] is over 1000 nM; in test [2], under 100 nM.
The like results for `Cc1ccnc(Nc2cccc(-c3cnc([C@H]4CC[C@H](CN5CCC(O)CC5)CC4)s3)n2)c1` [Compound A-296] were, in that order, over 1000 nM and 100 to 1000 nM.
The like results for `O=C([C@H]1CC[C@H](c2ncc(-c3cccc(Nc4cc(Cl)ccn4)n3)s2)CC1)N1CCC(O)CC1` [Compound A-297, (trans-4-{5-[6-(4-chloropyridin-2-ylamino)pyridin-2-yl]thiazol-2-yl}cyclohexyl)-(4-hydroxypiperidin-1-yl)metanone] were, in that order, 100 to 1000 nM and under 100 nM.
Turning to `Cc1ccnc(Nc2cccc(-c3cnc([C@H]4CC[C@H](C(=O)NN5CCC(O)CC5)CC4)s3)n2)c1` [Compound A-298, N-(4-hydroxypiperidin-1-yl)-trans-4-{5-[6-(4-methylpyridin-2-ylamino)pyridin-2-yl]thiazol-2-yl}cyclohexanecarboxamide], the results for the IC50 in test [1] and in test [2] were 100 to 1000 nM and under 100 nM, respectively.
For `Cc1ccnc(Nc2cccc(-c3cnc([C@H]4CC[C@H](C(=O)N5CCN(C)CC5)CC4)s3)n2)c1` [Compound A-300], the half-maximal inhibitory concentration (IC50) in test [1] and in test [2] was 100 to 1000 nM each time.
As to `Cc1ccnc(Nc2cccc(-c3cnc(CCC4CCN(C(=O)c5ccncc5)CC4)s3)n2)c1` [Compound A-301], the IC50 in test [1] and in test [2] was 100 to 1000 nM each time.
Turning to `Cc1ccnc(Nc2cccc(-c3cnc([C@H]4CC[C@H](C(=O)N(CCO)CCO)CC4)s3)n2)c1` [Compound A-302], the IC50 in test [1] and in test [2] was 100 to 1000 nM in each case.
For the compound `Cc1ccnc(Nc2cccc(-c3cnc([C@H]4CC[C@H](C(=O)N[C@@H](CO)Cc5cnc[nH]5)CC4)s3)n2)c1` [Compound A-303, N—[(R)-2-hydroxy-1-(3H-imidazol-4-ylmethyl)ethyl]-trans-4-{5-[6-(4-methylpyridin-2-ylamino)pyridin-2-yl]thiazol-2-yl}cyclohexanecarboxamide], the IC50 in test [1] is over 1000 nM; in test [2], under 100 nM.
Consider `Cc1ccnc(Nc2cccc(-c3cnc([C@H]4CC[C@H](C(=O)N[C@H](CO)Cc5cnc[nH]5)CC4)s3)n2)c1` [Compound A-304, N—[(S)-2-hydroxy-1-(3H-imidazol-4-ylmethyl)ethyl]-trans-4-{5-[6-(4-methylpyridin-2-ylamino)pyridin-2-yl]thiazol-2-yl}cyclohexanecarboxamide], for which the concentration for half-maximal inhibition (IC50) is over 1000 nM in test [1] and under 100 nM in test [2].
Turning to `Cc1ccnc(Nc2cccc(-c3cnc([C@H]4CC[C@H](C(=O)N[C@H]5CC[C@H](O)CC5)CC4)s3)n2)c1` [Compound A-305], the 50% inhibitory concentration (IC50) in test [1] and in test [2] was 100 to 1000 nM throughout.
`Cc1ccnc(Nc2cccc(-c3cnc(C4CCN(C(=O)c5ccncc5)CC4)s3)n2)c1` [Compound A-306]: the IC50 in test [1] and in test [2] was 100 to 1000 nM in each case.
With `O=C([C@H]1CC[C@H](c2ncc(-c3cccc(Nc4cc5ccccc5cn4)n3)s2)CC1)N1CCC(O)CC1` [Compound A-307], the IC50 in test [1] and in test [2] was 100 to 1000 nM each time.
For the compound `COC(=O)NCCc1ncc(-c2cccc(Nc3cc(C)ccn3)n2)s1` [Compound A-308], the IC50 in test [1] and in test [2] was 100 to 1000 nM each time.
Consider `Cc1ccnc(Nc2cccc(-c3cnc([C@H]4CC[C@H](C(=O)NCCN(C)C)CC4)s3)n2)c1` [Compound A-309, N-(2-dimethylaminoethyl)-trans-4-{5-[6-(4-methylpyridin-2-ylamino)pyridin-2-yl]thiazol-2-yl}cyclohexanecarboxamide], for which the IC50 in test [1] was 100 to 1000 nM; in test [2], under 100 nM.
Regarding `Cc1ccnc(Nc2cccc(-c3cnc([C@H]4CC[C@H](C(=O)NC5(CO)CCCC5)CC4)s3)n2)c1` [Compound A-310], the IC50 in test [1] is over 1000 nM; in test [2] it was 100 to 1000 nM.
As for `Cc1ccnc(Nc2cccc(-c3cnc([C@H]4CC[C@H](C(=O)N5CCC(N)C5)CC4)s3)n2)c1` (stereo partly drawn) [Compound A-311, (3-aminopyrrolidin-1-yl)-(trans-4-{5-[6-(4-methylpyridin-2-ylamino)pyridin-2-yl]thiazol-2-yl}cyclohexyl)methanone trihydrochloride], the concentration for half-maximal inhibition (IC50) in test [1] is 100 to 1000 nM; in test [2] it was under 100 nM.
As to `Cc1ccnc(Nc2cccc(-c3cnc([C@H]4CC[C@H](C(=O)N5CCC(NS(C)(=O)=O)C5)CC4)s3)n2)c1` (stereo partly drawn) [Compound A-312, N-[1-(trans-4-{5-[6-(4-methylpyridin-2-ylamino)pyridin-2-yl]thiazol-2-yl]cyclohexanecarbonyl)pyrrolidin-3-yl}methanesulfonamide], the 50% inhibitory concentration (IC50) in test [1] was 100 to 1000 nM; in test [2], under 100 nM.
On to `Cc1ccnc(Nc2cccc(-c3cnc([C@H]4CC[C@H](C(=O)N5CCC(NC(=O)CO)C5)CC4)s3)n2)c1` (stereo partly shown) [Compound A-313], for which the IC50 in test [1] and in test [2] was 100 to 1000 nM throughout.
Regarding `Cc1ccnc(Nc2cccc(-c3cnc([C@H]4CC[C@H](CN5C[C@@H](O)[C@@H](O)C5)CC4)s3)n2)c1` [Compound A-314, (3R,4S)-1-(trans-4-{5-[6-(4-methylpyridin-2-ylamino)pyridin-2-yl]thiazol-2-yl}cyclohexylmethyl)pyrrolidin-3,4-diol], the values for the IC50 in test [1] and in test [2] were over 1000 nM and under 100 nM, respectively.
As for `Cc1ccnc(Nc2cccc(-c3cnc([C@H]4CC[C@H](CN5CCCC(O)C5)CC4)s3)n2)c1` (stereo partly shown) [Compound A-315], the 50% inhibitory concentration (IC50) is over 1000 nM in test [1] and 100 to 1000 nM in test [2].
As to `Cc1ccnc(Nc2cccc(-c3cnc([C@H]4CC[C@H](C#N)CC4)s3)n2)c1` [Compound A-316, trans-4-{5-[6-(4-methylpyridin-2-ylamino)pyridin-2-yl]thiazol-2-yl}cyclohexanecarbonitrile], the results for the concentration for half-maximal inhibition (IC50) in test [1] and in test [2] were 100 to 1000 nM and under 100 nM, respectively.
The corresponding values for `Cc1ccnc(Nc2cccc(-c3cnc([C@H]4CC[C@@H](C#N)CC4)s3)n2)c1` [Compound A-317, cis-4-{5-[6-(4-methylpyridin-2-ylamino)pyridin-2-yl]thiazol-2-yl}cyclohexanecarbonitrile] are 100 to 1000 nM and under 100 nM.
On to `CC(=O)O[C@@H](c1ccccc1)c1ncc(-c2cccc(Nc3cc(C)ccn3)n2)s1` [Compound A-318], for which the IC50 was over 1000 nM in test [1] and 100 to 1000 nM in test [2].
With `COc1ccnc(Nc2cccc(-c3cnc([C@@H]4CCC(=O)N4)s3)n2)c1` [Compound A-319, (S)-5-{5-[6-(4-methoxypyridin-2-ylamino)pyridin-2-yl]thiazol-2-yl}pyrrolidin-2-one], the IC50 is 100 to 1000 nM in test [1] and under 100 nM in test [2].
For the compound `COc1ccnc(Nc2cccc(-c3cnc([C@H](C)O)s3)n2)c1` [Compound A-320, (S)-1-{5-[6-(4-methoxypyridin-2-ylamino)pyridin-2-yl]thiazol-2-yl}ethanol], the half-maximal inhibitory concentration (IC50) in test [1] and in test [2] was under 100 nM each time.
Regarding `C[C@H](O)c1ncc(-c2cccc(Nc3cc(CCO)ccn3)n2)s1` [Compound A-321, (S)-1-(5-{6-[4-(2-hydroxyethyl)pyridin-2-ylamino]pyridin-2-yl}thiazol-2-yl)ethanol], the half-maximal inhibitory concentration (IC50) in test [1] and in test [2] was under 100 nM in each case.
